# Laboratory results: patent US5149707A, “1-((2-fluorophenyl)(4-fluorophenyl)phenylmethyl)-1H-imidazole useful as antifungal agent” (J. Uriach & Cia, S.A., priority 1988, dated 1992)
# Read-outs that look alike come from different tables or passages of the source.
# What was measured:
# [1] = tested on: C. pseudotropicalis ATCC 28838; test: In vitro antifungal activity (MIC), agar dilution; format: cell-based; details: Kluyveromyces marxianus
# Protocol: (§1) The antifungal activity of 1-[(2-fluorophenyl)(4-fluorophenyl)phenylmethyl]-1H-imidazole was shown by its ability to inhibit the growth of different species of yeast and filamentous fungi in vitro. The activity was recorded as the MIC value, that is, the minimum amount of product needed to achieve the complete inhibition of the in vitro growth of the test organism. Testing was performed as follows: a solution of the antifungal agent in ethanol was diluted with DST agar (pH 6.5) or Emmon's Sabouraud dextrose agar to obtain concentrations between 10 and 0.01 mcg/ml, or 80 and 0.16 mcg/m, respectively. The inoculum was standarized in order 1×10^5 cfu/ml, and 10 mcl of each organism was seeded into the agar surface. Incubation was then allowed at 30° C. during 3 days (DST) or 2 days (Emmon's) for yeasts and 10 days for filamentous fungi. Following incubation, the zones of inhibition were measured and compared to an inoculated, drug-free control to yield the MIC value.
# Rhodotorula rubra = test: In vitro antifungal activity (MIC), agar dilution; format: cell-based
# Protocol: as §1
# C. albicans ATCC 10231 = test: In vitro antifungal activity (MIC), agar dilution; format: cell-based; details: Candida albicans
# Protocol: as §1
# [2] = tested on: Aspergillus fumigatus (1); test: In vitro antifungal activity (MIC), agar dilution; format: cell-based
# Protocol: as §1
# C. albicans ATCC 28516 = test: In vitro antifungal activity (MIC), agar dilution; format: cell-based; details: Candida albicans
# Protocol: as §1
# [3] = tested on: Aspergillus fumigatus (2); test: In vitro antifungal activity (MIC), agar dilution; format: cell-based
# Protocol: as §1
# Aspergillus niger = test: In vitro antifungal activity (MIC), agar dilution; format: cell-based
# Protocol: as §1
# C. albicans serotipo A = test: In vitro antifungal activity (MIC), agar dilution; format: cell-based
# Protocol: as §1
# C. tropicalis SQ 1647 = test: In vitro antifungal activity (MIC), agar dilution; format: cell-based
# Protocol: as §1
# [4] = tested on: T. mentagrophytes ATCC 9972; test: In vitro antifungal activity (MIC), agar dilution; format: cell-based; details: Trichophyton mentagrophytes
# Protocol: as §1
# [5] = tested on: T. mentagrophytes (clinica) (4); test: In vitro antifungal activity (MIC), agar dilution; format: cell-based; details: Trichophyton mentagrophytes
# Protocol: as §1
# [6] = tested on: yeast and filamentous fungi; test: Comparative antifungal tests of Examples 18 to 20; format: cell-based
# Protocol: as §1, with “Incubation was then allowed at 30° C. during 3 days (DST) or 2 days (Emmon's) for yeasts and 10 days for filamentous fungi.” left out
# The growth inhibition percentage of 5 different isolates on shake cultures was determined 24 h and 48 h after incubation at 28° C. […] The growth inhibition percentage was determined by spectrophotometry (450 nm). […]
# The antifungal activity of 1-[(2-fluorophenyl)(4-fluorophenyl)phenylmethyl]-1H-imidazole and bifonazole was determined by serial dilutions in Sabouraud gentamycin broth using microplates. […] MIC's were determined as in example 18. […]
# fungi (some species) = test: Preliminary tests of antifungal activity; format: cell-based
# mice = details: mouse, in vivo
# Pharmacokinetics = details: in words
# Tolerance (DL50) in mice = details: mouse, in vivo
# [7] = Liposolubility (log P octanol-water); format: physicochemical
# [8] = Emmon's Sabouraud dextrose agar
# [9] = Emmon's Sabouraud dextrose agar, read-out: MIC
smiles,measurement,setting,value
"c1ccc(-c2ccc(C(c3ccccc3)n3ccnc3)cc2)cc1 (stereo not drawn) [Bifonazole, 1-[(4-biphenyl)-phenylmethyl]-1H-imidazole, reference compound]",MIC,"[1]; ATCC28838, DST agar",0.05 µg/mL
same,MIC,"[1]; ATCC28838, Emmon's Sabouraud dextrose agar",1.25 µg/mL
same,MIC,Rhodotorula rubra; DST agar,0.05 µg/mL
same,MIC,Rhodotorula rubra; [8],0.04 µg/mL
same,MIC,"C. albicans ATCC 10231; ATCC10231, DST agar",1 µg/mL
same,MIC,"C. albicans ATCC 10231; ATCC10231, Emmon's Sabouraud dextrose agar",0.63 µg/mL
same,MIC,[2]; DST agar,0.1 µg/mL
same,MIC,[2]; [8],0.31 µg/mL
same,MIC,"C. albicans ATCC 28516; ATCC28516, DST agar",2.5 µg/mL
same,MIC,"C. albicans ATCC 28516; ATCC28516, Emmon's Sabouraud dextrose agar",0.63 µg/mL
same,MIC,[3]; DST agar,1 µg/mL
same,MIC,[3]; [8],1.25 µg/mL
same,MIC,Aspergillus niger; DST agar,0.1 µg/mL
same,MIC,Aspergillus niger; [8],2.5 µg/mL
same,MIC,C. albicans serotipo A; Candida albicans,2.5 µg/mL
same,MIC,C. albicans serotipo A; [8],2.50 µg/mL
same,MIC,"C. tropicalis SQ 1647; Candida tropicalis, SQ1647",10 µg/mL
same,MIC,C. tropicalis SQ 1647; [8],10.00 µg/mL
same,MIC,"[4]; ATCC9972, DST agar",1 µg/mL
same,MIC,"[4]; ATCC9972, Emmon's Sabouraud dextrose agar",5 µg/mL
same,MIC,[5]; DST agar,0.5 µg/mL
same,MIC,[5]; [8],5 µg/mL
"Fc1ccc(C(c2ccccc2)(c2ccccc2F)n2ccnc2)cc1 (stereo not drawn) [UR-4056, 1-[(2-fluorophenyl) (4-fluorophenyl)phenylmethyl]-1H-imidazole]",potency compared with bifonazole,[6],more potent than bifonazole in many instances
same,antifungal activity,fungi (some species),very good activity against some species
same,tolerance,mice,good tolerance
same,pharmacokinetics,Pharmacokinetics,appropiate pharmacokinetics
same,MIC,"[1]; ATCC28838, DST agar, read-out: MIC",0.025 µg/mL
same,MIC,"[1]; ATCC28838, Emmon's Sabouraud dextrose agar, read-out: MIC",0.63 µg/mL
same,MIC,Rhodotorula rubra; DST agar,0.1 µg/mL
same,MIC,Rhodotorula rubra; [8],0.08 µg/mL
same,MIC,"C. albicans ATCC 10231; ATCC10231, DST agar, read-out: MIC",1 µg/mL
same,MIC,"C. albicans ATCC 10231; ATCC10231, Emmon's Sabouraud dextrose agar, read-out: MIC",0.04 µg/mL
same,MIC,"[2]; DST agar, read-out: MIC",0.5 µg/mL
same,MIC,[2]; [9],0.63 µg/mL
same,MIC,"C. albicans ATCC 28516; ATCC28516, DST agar, read-out: MIC",0.5 µg/mL
same,MIC,"C. albicans ATCC 28516; ATCC28516, Emmon's Sabouraud dextrose agar, read-out: MIC",0.04 µg/mL
same,MIC,"[3]; DST agar, read-out: MIC",0.5 µg/mL
same,MIC,[3]; [9],1.25 µg/mL
same,MIC,Aspergillus niger; DST agar,0.25 µg/mL
same,MIC,Aspergillus niger; [8],2.5 µg/mL
same,MIC,"C. albicans serotipo A; Candida albicans, DST agar, read-out: MIC",1 µg/mL
same,MIC,"C. albicans serotipo A; Candida albicans, Emmon's Sabouraud dextrose agar, read-out: MIC",1.25 µg/mL
same,MIC,"C. tropicalis SQ 1647; Candida tropicalis, SQ1647, DST agar, read-out: MIC",1 µg/mL
same,MIC,"C. tropicalis SQ 1647; Candida tropicalis, SQ1647, Emmon's Sabouraud dextrose agar, read-out: MIC",0.63 µg/mL
same,MIC,"[4]; ATCC9972, DST agar, read-out: MIC",0.25 µg/mL
same,MIC,"[4]; ATCC9972, Emmon's Sabouraud dextrose agar, read-out: MIC",1.25 µg/mL
same,MIC,"[5]; DST agar, read-out: MIC",0.1 µg/mL
same,MIC,[5]; [9],1.25 µg/mL
same,LD50,Tolerance (DL50) in mice,691 mg/kg
same,liposolubility,[7]; in words,good liposolubility
same,logP,[7]; octanol-water,3.09
